These results are taken from patent US10941152B2, “Pyrazole compounds as modulators of FSHR and uses thereof” (TOCOPHERX, INC., priority 2014, dated 2021).

pEC50: −log10 of the molar value.

Assay [1] has as its target T1, FSHR (Homo sapiens, UniProt P23945).
T1 construct: expressed in transfected cells; host or cells: CHO (Cho-FSHR-LUC-1-1-43)
T1 sequence (P23945 18-695): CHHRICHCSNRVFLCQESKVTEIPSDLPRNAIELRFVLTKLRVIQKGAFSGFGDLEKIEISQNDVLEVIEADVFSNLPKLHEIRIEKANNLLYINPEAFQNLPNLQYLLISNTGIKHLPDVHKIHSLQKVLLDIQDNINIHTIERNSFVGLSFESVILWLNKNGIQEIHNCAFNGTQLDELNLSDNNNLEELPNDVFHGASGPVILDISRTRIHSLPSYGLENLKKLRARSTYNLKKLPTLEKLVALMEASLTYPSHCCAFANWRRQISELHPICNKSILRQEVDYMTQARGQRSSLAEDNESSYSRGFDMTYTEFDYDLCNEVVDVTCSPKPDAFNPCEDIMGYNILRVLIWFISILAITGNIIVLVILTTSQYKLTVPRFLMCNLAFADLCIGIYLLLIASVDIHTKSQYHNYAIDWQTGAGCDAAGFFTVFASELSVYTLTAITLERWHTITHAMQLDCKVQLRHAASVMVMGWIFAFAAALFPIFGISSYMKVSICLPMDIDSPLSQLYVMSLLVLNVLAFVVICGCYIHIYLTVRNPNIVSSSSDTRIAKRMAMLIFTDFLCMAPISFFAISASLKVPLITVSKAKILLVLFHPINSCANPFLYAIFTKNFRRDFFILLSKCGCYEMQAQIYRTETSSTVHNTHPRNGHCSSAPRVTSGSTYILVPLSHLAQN
The assay can be described thus: EC50 of cyclic AMP production in CHO FSHR cells + EC20 FSH (Assay A). The note with it: cyclic AMP production in CHO FSHR cells + EC20 FSH (0.265 pM), HTRF. The assay is classed as cell-based. In outline: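 cAMP was detected by HTRF as the 665/620 nm ratio. The CHO-FSHR cells had first been exposed for 1 h at 37° C to test compound together with 0.265 pM FSH (EC20) and 200 μM IBMX. Responses are given as percent of the FSH standard maximum.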
For orientation: In TR-FRET formats the signal depends on donor and acceptor labels being close together.

In assay [2] the target is T2, follicle-stimulating hormone (FSH) receptor (Rattus norvegicus, UniProt P20395).
T2 construct: endogenous in cells; host or cells: rat granulosa cells
T2 sequence (P20395 18-692): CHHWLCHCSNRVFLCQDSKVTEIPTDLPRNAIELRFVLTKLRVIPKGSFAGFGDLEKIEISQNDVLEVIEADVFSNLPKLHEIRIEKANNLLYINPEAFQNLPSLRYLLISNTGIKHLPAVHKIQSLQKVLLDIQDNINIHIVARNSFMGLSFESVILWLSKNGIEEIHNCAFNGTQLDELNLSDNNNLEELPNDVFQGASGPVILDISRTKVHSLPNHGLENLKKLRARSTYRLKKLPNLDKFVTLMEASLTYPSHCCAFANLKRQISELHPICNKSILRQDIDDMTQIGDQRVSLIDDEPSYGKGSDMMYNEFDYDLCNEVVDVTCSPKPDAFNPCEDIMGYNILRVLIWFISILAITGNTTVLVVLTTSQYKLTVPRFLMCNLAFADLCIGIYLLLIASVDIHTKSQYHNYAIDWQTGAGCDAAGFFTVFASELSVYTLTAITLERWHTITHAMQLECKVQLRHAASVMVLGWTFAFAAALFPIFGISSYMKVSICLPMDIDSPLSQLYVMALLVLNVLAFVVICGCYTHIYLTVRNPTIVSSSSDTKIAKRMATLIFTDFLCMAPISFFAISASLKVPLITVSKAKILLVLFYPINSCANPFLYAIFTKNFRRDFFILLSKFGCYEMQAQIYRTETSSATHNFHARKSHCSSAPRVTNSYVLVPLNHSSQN
The assay can be described thus: Rat granulosa EC50 FSH (Assay B). Format: cell-based. On the procedure: Example 25. Rat granulosa EC50 FSH (Assay B)
The assay was performed pursuant to the teaching of Yanofsky et al. (2006) Allosteric activation of the follicle-stimulating hormone (FSH) receptor by selective, nonpeptide agonists (JBC 281(19): 13226-13233, which is incorporated by reference in the disclosure of the invention).

A word on the pEC50: it is the EC50 on a negative log10 scale, so that one unit is a factor of ten.

As to `COc1cc2c(cc1-c1cncc(C(N)=O)c1)-c1c(c(C(=O)N(C)C(C)(C)C)nn1-c1cc(C)cc(F)c1)CO2` [Compound 173], the pEC50 was over 8.00 in assay [1] and 7.00 to 8.00 in assay [2].

Regarding `COc1cc(OC)cc(-n2nc(C(=O)N(C)C(C)(C)C)c3c2-c2cc(-c4ccccn4)c(OC)cc2OC3)c1` [Compound 46, N-tert-butyl-1-(3,5-dimethoxyphenyl)-7-methoxy-N-methyl-8-(pyridin-2-yl)-1,4-dihydrochromeno[4,3-c]pyrazole-3-carboxamide], the pEC50 in assay [1] was 7.00 to 8.00; in assay [2] it was 6.30 to 7.00.

Consider `COc1cc2c(cc1-c1cc(C(N)=O)ncc1F)-c1c(c(C(=O)N3CCOCC3(C)C)nn1-c1cc(F)cc(F)c1)CO2` [Compound 72, 4-(1-(3,5-difluorophenyl)-3-(3,3-dimethylmorpholine-4-carbonyl)-7-methoxy-1,4-dihydrochromeno[4,3-c]pyrazol-8-yl)-5-fluoropicolinamide], for which the negative-log EC50 (pEC50) was over 8.00 in assay [1] and 7.00 to 8.00 in assay [2].

Take `COc1cc2c(cc1-c1cccc(C#N)c1F)-c1c(c(C(=O)N(C)C(C)(C)C)nn1-c1cc(Cl)cc(Cl)c1)CO2` [Compound 19, N-tert-butyl-8-(3-cyano-2-fluorophenyl)-1-(3,5-dichlorophenyl)-7-methoxy-N-methyl-1,4-dihydrochromeno[4,3-c]pyrazole-3-carboxamide]: the results for the pEC50 in assay [1] and in assay [2] were over 8.00 and 6.30 to 7.00, respectively.

In the case of `COc1cc(OC)cc(-n2nc(C(=O)N(C)C(C)(C)C)c3c2-c2cc(-c4nn(C)cc4C#N)c(OC)cc2OC3)c1` [Compound 146, N-tert-butyl-8-(4-cyano-1-methyl-1H-pyrazol-3-yl)-1-(3,5-dimethoxyphenyl)-7-methoxy-N-methyl-1,4-dihydrochromeno[4,3-c]pyrazole-3-carboxamide], the results for the pEC50 in assay [1] and in assay [2] were over 8.00 and 6.30 to 7.00, respectively.

Consider `COc1cc2c(cc1-c1cncc(C(=O)O)c1)-c1c(c(C(=O)N(C)C(C)(C)C#N)nn1-c1cc(F)cc(F)c1)CO2` [Compound 107, 5-(3-((2-cyanopropan-2-yl)(methyl)carbamoyl)-1-(3,5-difluorophenyl)-7-methoxy-1,4-dihydrochromeno[4,3-c]pyrazole-8-yl)nicotinic acid], for which the pEC50 in assay [1] was over 8.00; in assay [2] it was 6.30 to 7.00.

In the case of `COc1cc2c(cc1-c1nn(C)cc1Br)-c1c(c(C(=O)N(C)C(C)(C)C)nn1-c1cc(Cl)cc(Cl)c1)CO2` [Compound 148], the negative logarithm of the EC50 (pEC50) in assay [1] is over 8.00; in assay [2] it was 7.00 to 8.00.

Turning to `COc1cc2c(cc1-c1ccn(C)n1)-c1c(c(C(=O)N3CCN(C#N)CC3(C)C)nn1-c1ccsc1)CO2` [Compound 184, 4-(7-methoxy-8-(1-methyl-1H-pyrazol-3-yl)-1-(thiophen-3-yl)-1,4-dihydrochromeno[4,3-c]pyrazole-3-carbonyl)-3,3-dimethylpiperazine-1-carbonitrile], the negative logarithm of the EC50 (pEC50) in assay [1] is over 8.00; in assay [2] it was 7.00 to 8.00.

In the case of `COc1cc2c(cc1-c1cnn(CC(N)=O)c1)-c1c(c(C(=O)N3CCOCC3(C)C)nn1-c1cc(F)cc(F)c1)CO2` [Compound 99, 2-(4-(1-(3,5-difluorophenyl)-3-(3,3-dimethylmorpholine-4-carbonyl)-7-methoxy-1,4-dihydrochromeno[4,3-c]pyrazol-8-yl)-1H-pyrazol-1-yl)acetamide], the pEC50 is over 8.00 in assay [1] and 7.00 to 8.00 in assay [2].

As for `COc1cc2c(cc1-c1cncc(C#N)c1)-c1c(c(C(=O)N3CCOCC3(C)C)nn1-c1cc(Cl)cc(Cl)c1)CO2` [Compound 12, 5-(1-(3,5-dichlorophenyl)-3-(3,3-dimethylmorpholine-4-carbonyl)-7-methoxy-1,4-dihydrochromeno[4,3-c]pyrazol-8-yl)nicotinonitrile], the pEC50 in assay [1] is over 8.00; in assay [2] it was 7.00 to 8.00.
